Values of other authors, collected in US6462083B1, “Suppository base” (priority 2001, dated 2002).

Test system: blood flow to the site of administration
Conditions: laser Doppler imaging; no species, dose or data printed

CCCCCCCC/C=C\CCCCCCCCCCCC(=O)O [Erucic acid, (Z)-13-Docosenoic acid]
blood flow to the site of administration: enhance blood flow to the site of administration
